pIC50: −log10 of the molar value.

What all share (type): cell-based
Experiment [1] has as its target T1, human A2B receptors (Homo sapiens, UniProt P29275).
T1 construct: expressed in transfected cells; host or cells: HEK293
T1 sequence (P29275 1-332): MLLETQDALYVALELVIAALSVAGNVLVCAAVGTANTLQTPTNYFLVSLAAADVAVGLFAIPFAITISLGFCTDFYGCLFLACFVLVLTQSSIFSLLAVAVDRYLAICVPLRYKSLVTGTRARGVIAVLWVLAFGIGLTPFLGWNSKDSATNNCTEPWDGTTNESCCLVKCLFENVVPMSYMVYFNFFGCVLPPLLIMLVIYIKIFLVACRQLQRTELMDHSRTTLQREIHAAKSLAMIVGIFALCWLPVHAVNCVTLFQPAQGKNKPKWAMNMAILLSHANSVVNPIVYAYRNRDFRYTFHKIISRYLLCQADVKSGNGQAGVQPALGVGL
In words: Functional human A2B receptor activity, recombinant HEK293 cells, cAMP (HTRF). As to conditions: read-out: A2B (Category). The method in brief: (§1)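 Adenosine receptor activity tracked via second-messenger cAMP; incubation 15 min, then HTRF detection of cellular cAMP.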
Background: TR-FRET usually uses a lanthanide donor and a delayed reading to cut background.

Experiment [2] deals with Human T cell. In words: Human T cell IL-2. As to conditions: human T cells.
Experiment [3] deals with T2, Gs-coupled human A2A receptor (Homo sapiens, UniProt P29274).
T2 construct: The endogenous functional activity of the Gs-coupled human A2A receptor was measured in T cells; endogenous in cells; host or cells: human pan T cells isolated from PBMC of fresh whole blood
T2 sequence (P29274 whole entry): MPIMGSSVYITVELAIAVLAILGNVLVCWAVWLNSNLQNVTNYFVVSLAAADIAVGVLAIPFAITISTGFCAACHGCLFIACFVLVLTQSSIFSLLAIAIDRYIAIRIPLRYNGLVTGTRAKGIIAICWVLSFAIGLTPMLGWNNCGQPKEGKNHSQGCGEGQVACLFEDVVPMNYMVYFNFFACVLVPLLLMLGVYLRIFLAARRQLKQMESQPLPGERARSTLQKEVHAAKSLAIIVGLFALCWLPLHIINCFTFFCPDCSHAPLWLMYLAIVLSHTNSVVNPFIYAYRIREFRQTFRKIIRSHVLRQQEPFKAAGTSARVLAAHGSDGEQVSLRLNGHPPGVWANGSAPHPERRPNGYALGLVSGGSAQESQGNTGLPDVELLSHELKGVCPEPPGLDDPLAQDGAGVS
In words: Human T cell assay, endogenous A2A receptor, cAMP (HTRF). Here is the method: The endogenous functional activity of the Gs-coupled human A2A receptor was measured in T cells, where this receptor is highly expressed. Determination of receptor activity was done by quantification of cAMP, which is a second messenger for adenosine receptors.
In short, human pan T cells were isolated from human PBMC (MACS Pan T Cell Isolation Kit, Miltenyi Biotec) that have been derived from fresh whole blood. The T cells were seeded in 384-well microtiter plates and treated with test compounds. […] Finally, HTRF reagents (cAMP Femto Kit, CisBio) were added to the wells, and after 1 h cellular cAMP levels were determined using the ENVISION (Perkin Elmer) plate reader.
The obtained raw data were normalized against the inhibitor control and the neutral control (DMSO) and the normalized data were fitted using Genedata Screener software.

Experiment [4] deals with mouse Pan T cells. In words: Mouse T cell IL-2 rescue from NECA (CD3/CD28-activated Pan T cells, ELISA). As to conditions: 24 h. An excerpt: Adenosine (Ado) in tumor microenvironment can inhibit T cell activity by signaling through A2A receptors and suppress cytokine secretion by T cells. […] Potential A2A antagonists or A2A/A2B dual antagonists can rescue T cells from this inhibition. Herein, we describe the in vitro system we established using Pan T cells from mouse spleens to screen potential A2A antagonists or A2A/A2B dual antagonists for their activity. The method described involves the use of CD3/CD28 pre-coated beads to stimulate Pan T cells purified from mouse splenocytes, combined with the addition of A2A agonist along with potential A2A or A2A/A2B dual antagonists to evaluate potentiation of T cell cytokine production.
Briefly, mouse Pan T cells are purified from spleens of BALB/c mice using Pan T cell isolation kit Mouse II (MACS Miltenyi biotech Cat #Order no. 130-095-130) according to manufacturer's protocol. The purified T cells are seeded in Nunc™ 96-Well Polystyrene Round Bottom Microwell Plates in RPMI medium with 10% heat inactivated fetal bovine serum. The cells are rested at 37° C. for 1 h before activating with CD3/CD28 pre-coated beads (Dynabeads™ Mouse T-Activator CD3/CD28; Cat #11456D). After 30 min the cells are treated with varying doses of test antagonist(s). […] After 24 h incubation IL-2 levels in the supernatants are measured by ELISAs according to manufacturer's protocol (R&D systems Cat #DY402 (IL-2)). Once the concentrations are calculated, the difference of cytokine concentration of DMSO control and agonist alone control is calculated and the percentage of rescue by each concentration of antagonist is calculated by using Microsoft Excel. These percentages of cytokine rescue in a dose dependent manner of antagonist is plotted in GraphPad Prism software and IC50 is calculated.

Experiment [5] concerns the target T3, human A2A receptors (Homo sapiens, UniProt P29274).
T3 construct: expressed in transfected cells; host or cells: HEK293
In words: Functional human A2A receptor activity, recombinant HEK293 cells, cAMP (HTRF). As to conditions: read-out: A2A (Category). The method in brief:
as §1

T3 sequence (P29274 whole entry): as above

Take `O=C(c1cc2c(cn1)c(-c1coc3ccc(F)cc13)nn2CC(F)(F)F)N1CCCOCC1` [Compound 109, [3-(5-fluorobenzofuran-3-yl)-1-(2,2,2-trifluoroethyl)pyrazolo[4,3-c]pyridin-6-yl]-(1,4-oxazepan-4-yl)methanone]: the pIC50 in experiment [1] is over 7.00; in experiment [2], over 7.00; in experiment [3], over 7.00; in experiment [4] it was over 6.00; in experiment [5], over 7.00.

As to `O=C(c1cc2c(cn1)c(-c1coc3ccccc13)nn2CC(F)(F)F)N1CCOCC(O)C1` (stereo not shown) [Compound 224, [3-(benzofuran-3-yl)-1-(2,2,2-trifluoroethyl)pyrazolo[4,3-c]pyridin-6-yl]-(6-hydroxy-1,4-oxazepan-4-yl)methanone], the pIC50 in experiment [1] was over 7.00; in experiment [2], over 7.00; in experiment [3] it was over 7.00; in experiment [4] it was over 6.00; in experiment [5], over 7.00.

For `O=C(c1cc2c(cn1)c(-c1cnc3c(F)cccn13)nn2CC(F)(F)F)N1[C@@H]2CC[C@H]1C[C@@H](O)C2` [Compound 85, [3-(8-fluoroimidazo[1,2-a]pyridin-3-yl)-1-(2,2,2-trifluoroethyl)pyrazolo[4,3-c]pyridin-6-yl]-(3-endo-hydroxy-8-azabicyclo[3.2.1]octan-8-yl)methanone], the pIC50 in experiment [1] is over 7.00; in experiment [2], over 6.00; in experiment [3], over 7.00; in experiment [4], over 7.00; in experiment [5] it was over 7.00.

`CN(CCNC(=O)OC(C)(C)C)C(=O)c1cc2c(cn1)c(-c1cnc3c(F)cc(F)cn13)nn2CC(F)(F)F` [Compound 197, (2-{[3-(6,8-Difluoro-imidazo[1,2-a]pyridin-3-yl)-1-(2,2,2-trifluoro-ethyl)-1H-pyrazolo[4,3-c]pyridine-6-carbonyl]-methyl-amino}-ethyl)-carbamic Acid Tert-Butyl Ester]: the pIC50 in experiment [1] was over 6.00; in experiment [5] it was over 7.00.

With `CC(C)CC1CN(C(=O)c2cc3c(cn2)c(-c2cnc4c(F)cc(F)cn24)nn3CC(F)(F)F)CCC1O` (stereo not shown) [Compound 143, [3-(6,8-Difluoro-imidazo[1,2-a]pyridin-3-yl)-1-(2,2,2-trifluoro-ethyl)-1H-pyrazolo[4,3-c]pyridin-6-yl]-(4-hydroxy-3-isobutyl-piperidin-1-yl)-methanone], the pIC50 in experiment [1] is over 6.00; in experiment [5] it was over 7.00.
